Read-outs that look alike come from different tables or passages of the source.
Legend:
[1] = log P by reversed-phase HPLC analogously to OECD Guideline 117; type: physicochemical; details: for LogP[a] / chromatographic logP: [a] acidic range; for LogP[b]: [b] neutral range, pH 7.8, ammonium hydrogencarbonate/acetonitrile; for chromatographic logP: reversed-phase C18 HPLC column
In short: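 Retention on reversed-phase C18 HPLC (LC-MS), acidic runs at pH 2.7 with formic acid or trifluoroacetic acid/acetonitrile gradients, neutral runs at pH 7.8 with 0.001 molar ammonium hydrogencarbonate/acetonitrile. log P obtained by linear interpolation of retention times against unbranched alkan-2-ones (C3–C16) of known log P.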

[2] = system: greenhouse red spider mite (Tetranychus urticae); assay: Tetranychus urticae spray test, OP-resistant (bean plants); type: in vivo; details: application rate 20 ppm, after 7 days
Method: Tetranychus urticae—Spray Test, OP-Resistant
(§1) Solvent: 7 parts by weight of dimethylformamide
(§2) Emulsifier: alkylaryl polyglycol ether
(§3) To produce an appropriate active ingredient formulation, 1 part by weight of active ingredient is dissolved using the specified parts by weight of solvent and made up with water containing an emulsifier concentration of 1000 ppm until the desired concentration is attained. To produce further test concentrations, the preparation is diluted with emulsifier-containing water. If the addition of ammonium salts or/and penetrants is required, these are each added in a concentration of 1000 ppm to the formulation solution.
Bean plants (Phaseolus vulgaris) heavily infested by all stages of the greenhouse red spider mite (Tetranychus urticae) are treated by spraying with the active ingredient formulation in the desired concentration.
After 7 days, the efficacy in % is determined. 100% means that all the spider mites have been killed; 0% means that none of the spider mites have been killed.

[3] = system: southern root-knot nematode (Meloidogyne incognita); assay: Meloidogyne incognita test (sand, lettuce, acetone solvent, 14 days); type: in vivo; details: application rate 20 ppm, after 14 days
Method: (§4) Meloidogyne incognita Test
Solvent: 125.0 parts by weight of acetone
To produce an appropriate active ingredient formulation, 1 part by weight of active ingredient is mixed with the stated amount of solvent and the concentrate is diluted with water to the desired concentration.
Vessels are filled with sand, active ingredient solution, an egg/larvae suspension of the southern root-knot nematode (Meloidogyne incognita) and lettuce seeds. The lettuce seeds germinate and the plants develop. The galls develop on the roots
After 14 days, the nematicidal efficacy in % is determined by the formation of galls. 100% means that no galls were found; 0% means that the number of galls on the treated plants corresponds to the untreated control.

[4] = system: larvae of the mustard beetle (Phaedon cochleariae); assay: Phaedon cochleariae spray test; type: in vivo; details: application rate 500 g/ha, after 7 days
Method: Phaedon cochleariae—Spray Test
Solvent: 78.0 parts by weight of acetone • • 1.5 parts by weight of dimethylformamide
as §2
as §3, with “water.” for “water. If the addition of ammonium salts or/and penetrants is required, these are each added in a concentration of 1000 ppm to the formulation solution.”
Discs of Chinese cabbage leaves (Brassica pekinensis) are sprayed with an active ingredient formulation of the desired concentration and, after drying, populated with larvae of the mustard beetle (Phaedon cochleariae).
After 7 days, the efficacy in % is determined. 100% means that all the beetle larvae have been killed; 0% means that no beetle larvae have been killed.

[5] = system: green peach aphid (Myzus persicae); assay: Myzus persicae spray test (Chinese cabbage leaf discs); type: in vivo; details: application rate 500 g/ha, after 6 days
Method: (§5) Myzus persicae—Spray Test
Solvent: 78 parts by weight of acetone • • 1.5 parts by weight of dimethylformamide
as §2
as §3, with “water.” for “water. If the addition of ammonium salts or/and penetrants is required, these are each added in a concentration of 1000 ppm to the formulation solution.”
Discs of Chinese cabbage leaves (Brassica pekinensis) infested by all stages of the green peach aphid (Myzus persicae) are sprayed with an active ingredient formulation of the desired concentration.
After 6 days, the efficacy in % is determined 100% means that all the aphids have been killed; 0% means that none of the aphids have been killed.

[6] = system: engorged adult female cattle ticks (Boophilus microplus); assay: Boophilus microplus injection test; type: in vivo; details: application rate 20 μg/animal, assessed after 7 days
Method: Boophilus microplus—Injection Test
Solvent: dimethyl sulphoxide
To produce an appropriate active ingredient formulation, 10 mg of active ingredient are mixed with 0.5 ml of solvent and the concentrate is diluted with solvent to the desired concentration.
1 μl of the active ingredient solution is injected into the abdomen of 5 engorged adult female cattle ticks (Boophilus microplus). The animals are transferred into dishes and kept in a climate-controlled room.
The efficacy is assessed after 7 days by laying of fertile eggs. Eggs which are not visibly fertile are stored in a climate-controlled cabinet until the larvae hatch after about 42 days. An efficacy of 100% means that none of the ticks has laid any fertile eggs; 0% means that all the eggs are fertile.

[7] = system: greenhouse red spider mite (Tetranychus urticae); assay: Tetranychus urticae spray test, OP-resistant (bean leaf discs); type: in vivo; details: after 6 days
In short: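 Compound dissolved in acetone/DMF and diluted in water with 1000 ppm alkylaryl polyglycol ether emulsifier, then sprayed on bean leaf discs infested with all stages of OP-resistant T. urticae. Mortality in % scored after 6 days (100% = all mites killed).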

[8] = system: adult cat fleas (Ctenocephalides felis); assay: Ctenocephalides felis in vitro contact test with adult cat fleas; type: in vivo; details: application rate 5 μg/cm^2 (=500 g/ha), after 48 h
Method: Ctenocephalides felis—In Vitro Contact Tests with Adult Cat Fleas
For the coating of the test tubes, 9 mg of active ingredient are first dissolved in 1 ml of acetone p.a. and then diluted to the desired concentration with acetone p.a. 250 μl of the solution are distributed homogeneously on the inner walls and base of a 25 ml test tube by turning and rocking on an orbital shaker (rocking rotation at 30 rpm for 2 h). With 900 ppm active ingredient solution and internal surface 44.7 cm^2, given homogeneous distribution, an area-based dose of 5 μg/cm^2 is achieved.
After the solvent has been evaporated off, the tubes are populated with 5-10 adult cat fleas (Ctenocephalides felis), sealed with a perforated plastic lid and incubated in a horizontal position at room temperature and ambient humidity. After 48 h, the efficacy is determined. To this end, the test tubes are stood upright and the fleas are knocked to the base of the tube. Fleas which remain motionless at the base or move in an uncoordinated manner are considered to be dead or moribund.
100% efficacy means that all the fleas were dead or moribund. 0% efficacy means that no fleas were harmed.

[9] = system: southern root-knot nematode (Meloidogyne incognita); assay: Meloidogyne incognita test (soil drench, lettuce, 21 days); type: in vivo; details: application rate 8 ppm, after 21 days
Method: as §4, §1
Emulsifier: 2.5 parts by weight of alkylaryl polyglycol ether
To produce an appropriate active ingredient formulation, 1 part by weight of active ingredient is mixed with the stated amounts of solvent and emulsifier, and the concentrate is diluted with water to the desired concentration, it being necessary to include the volume of soil which is drenched in the calculation. It should be noted that a concentration of 20 ppm of emulsifier in the soil is not exceeded. To produce further test concentrations, water is used for dilution.
Pots filled with soil (loamy sand) are watered with the active ingredient solution. An egg/larvae suspension of the southern root-knot nematode (Meloidogyne incognita) is added, lettuce seeds are scattered over the surface of the soil, and they are covered over with quartz sand. The lettuce seeds germinate and the plants develop. The galls develop on the roots
After 21 days, the nematicidal efficacy in % is determined by the formation of galls. 100% means that no galls have been found; 0% means that the number of galls on the treated plants corresponds to the untreated control.

[10] = system: green peach aphid (Myzus persicae); assay: Myzus persicae spray test (bell pepper plants); type: in vivo; details: application rate 20 ppm, after 6 days
Method: as §5, §1, §2, §3
Bell pepper plants (Capsicum annuum) heavily infested by the green peach aphid (Myzus persicae) are treated by spraying with the active ingredient formulation in the desired concentration.
After 6 days, the kill in % is determined. 100% means that all the aphids have been killed; 0% means that no aphids have been killed.

[11] = pH 2.7, formic acid (or trifluoroacetic acid)/acetonitrile

Row | SMILES | LogP[a] [1, 11] | LogP[b] [1] | efficacy (spider mites killed) [2] [%] | nematicidal efficacy (formation of galls) [3] [%] | efficacy (spider mites killed) ([7]; application rate 500 g/ha) [%] | further results
1 | Cc1cc(F)c(-n2ncc(=O)n(Cc3ccccc3)c2=O)cc1[S+]([O-])CC(F)(F)F (racemic) [compound 45] | 3.00 | 2.9 | 90 | – | – | –
2 | COCn1c(=O)ccn(-c2cc(SCC(F)(F)F)c(C)cc2F)c1=O [compound 80] | 2.62 | 2.66 | 100 | 100 | – | –
3 | Cc1cc(F)c(-n2ccc(=O)n(CC(F)(F)F)c2=O)cc1[S+]([O-])CC(F)(F)F (racemic) [compound 60] | 2.31 | 2.34 | 100 | 100 | – | efficacy (beetle larvae killed) [4]: 100%
4 | Cc1cc(F)c(-n2ncc(=O)n(Cc3ccc[n+]([O-])c3)c2=O)cc1[S+]([O-])CC(F)(F)F (racemic) [compound 48] | 1.51 | 1.45 | – | – | – | efficacy (aphids killed) [5]: 90%
5 | Cc1cc(F)c(-n2ncc(=O)n(Cc3cccnc3)c2=O)cc1[S+]([O-])CC(F)(F)F (racemic) [compound 49] | 1.47 | 2.00 | – | – | – | efficacy (aphids killed) [5]: 90%
6 | Cc1cc(F)c(-n2ncc(=O)n(CC(F)(F)F)c2=O)cc1SCC(F)(F)F [compound 10] | 3.65 | – | – | 100 | 90 | efficacy (beetle larvae killed) [4]: 83%; efficacy (no fertile eggs laid) [6]: 100%
7 | Cc1cc(F)c(-n2ncc(=O)n(CC3CC3)c2=O)cc1SCC(F)(F)F [compound 25] | 3.79 | 3.76 | – | 100 | 100 | efficacy (beetle larvae killed) [4]: 100%
8 | Cc1cc(F)c(-n2ncc(=O)n(CC#N)c2=O)cc1[S+]([O-])CC(F)(F)F (racemic) [compound 44] | 2.02 | 1.96 | 95 | – | – | efficacy (aphids killed) [5]: 90%
9 | Cc1cc(F)c(-n2ncc(=O)n(C)c2=O)cc1[S+]([O-])CC(F)(F)F (stereo not shown) [Ex. No. 2, 2-{2-Fluoro-4-methyl-5-[(2,2,2-trifluoroethyl)sulphinyl]phenyl}-4-methyl-1,2,4-triazine-3,5(2H,4H)-dione] | – | – | – | – | – | efficacy (fleas dead or moribund) [8]: 100%; chromatographic logP ([1]; pH 2.7, running text, pH 2.7, read-out: log P[a]): 1.94; chromatographic logP ([1]; pH 2.7, table column, pH 2.7, formic acid (or trifluoroacetic acid)/acetonitrile, read-out: LogP[a]): 1.94; pest or weed control at 20 ppm ([3]; Meloidogyne incognita, 336 h, read-out: nematicidal efficacy (formation of galls)): 90%; efficacy (no fertile eggs laid) [6]: 100%; pest or weed control at 500 g/ha ([7]; Tetranychus urticae, foliar, 144 h, application rate 500 g/ha, read-out: efficacy (spider mites killed)): 90%
10 | Cc1cc(C)c([S+]([O-])CC(F)(F)F)cc1-n1ncc(=O)n(CC(F)(F)F)c1=O (single isomer, unassigned) [compound 47] | 2.72 | 2.66 | 100 | – | – | –
11 | Cc1cc(F)c(-n2ncc(=O)n(CC3CC3)c2=O)cc1[S+]([O-])CC(F)(F)F (racemic) [compound 27] | 2.72 | 2.65 | – | 100 | 100 | efficacy (beetle larvae killed) [4]: 100%
12 | Cc1cc(F)c(-n2ncc(=O)n(Cc3cccnc3)c2=O)cc1SCC(F)(F)F [compound 43] | 2.36 | 2.87 | – | – | 90 | efficacy (aphids killed) [5]: 90%
13 | Cc1cc(F)c(-n2ncc(=O)n(C)c2=O)cc1[S+]([O-])CC(F)(F)F (single isomer, unassigned; (+)) [Ex. No. 29, (+)-2-[2-fluoro-4-methyl-5-(2,2,2-trifluoroethylsulphinyl)phenyl]-4-methyl-1,2,4-triazine-3,5-dione] | 1.95 | 1.9 | 100 | – | – | nematicidal efficacy (formation of galls) [9]: 100%; efficacy (no fertile eggs laid) [6]: 100%
14 | Cc1cc(F)c(-n2ccc(=O)n(CC(F)F)c2=O)cc1SCC(F)(F)F [compound 82] | 2.99 | 3.06 | 100 | 100 | – | –
15 | Cc1cc(F)c(-n2ncc(=O)n(CC(F)(F)F)c2=O)cc1[S+]([O-])CC(F)(F)F (single isomer, unassigned) [compound 50] | 2.62 | 2.57 | 100 | – | – | nematicidal efficacy (formation of galls) [9]: 99%
16 | C#CCn1c(=O)ccn(-c2cc(SCC(F)(F)F)c(C)cc2F)c1=O [compound 79] | 2.78 | 2.81 | – | 100 | 90 | efficacy (beetle larvae killed) [4]: 100%
17 | Cn1c(=O)cnn(-c2ccc(Cl)c(SCC(F)(F)F)c2)c1=O [compound 32] | 2.18 | 2.16 | – | – | 100 | efficacy (aphids killed) [5]: 90%
18 | Cn1c(=O)cnn(-c2ccc(Cl)c(SCC(F)(F)F)c2)c1=O [compound 31] | 3 | 2.91 | – | – | – | efficacy (kill of aphids) [10]: 97%; efficacy (spider mites killed) ([7]; application rate 100 g/ha): 100%
